Data reported in PubChem BioAssay (NCI).
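All cell lines were grown in 96-well plates and treated with compound for 48 hours. The concentration for 50% growth inhibition is given as GI50. Definition used: TGI = concentration required for complete inhibition of growth.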

Experiments:
Assay in all cases: DTP human tumour cell line panel, 48 h
786-0 renal = tested on: 786-0 renal
A498 renal = tested on: A498 renal
A549 NSCLC = tested on: A549 NSCLC
ACHN renal = tested on: ACHN renal
BT-549 breast = tested on: BT-549 breast
CAKI-1 renal = tested on: CAKI-1 renal
CCRF-CEM leukemia = tested on: CCRF-CEM leukemia
COLO 205 colon = tested on: COLO 205 colon
DU-145 prostate = tested on: DU-145 prostate
HCC-2998 colon = tested on: HCC-2998 colon
HCT-116 colon = tested on: HCT-116 colon
HCT-15 colon = tested on: HCT-15 colon
HL-60(TB) leukemia = tested on: HL-60(TB) leukemia
HOP-62 NSCLC = tested on: HOP-62 NSCLC
HOP-92 NSCLC = tested on: HOP-92 NSCLC
HS 578T breast = tested on: HS 578T breast
HT29 colon = tested on: HT29 colon
IGROV1 ovarian = tested on: IGROV1 ovarian
K-562 leukemia = tested on: K-562 leukemia
KM12 colon = tested on: KM12 colon
LOX IMVI melanoma = tested on: LOX IMVI melanoma
M14 melanoma = tested on: M14 melanoma
MALME-3M melanoma = tested on: MALME-3M melanoma
MCF7 breast = tested on: MCF7 breast
MDA-MB-231 breast = tested on: MDA-MB-231 breast
MDA-MB-435 = tested on: MDA-MB-435
MOLT-4 leukemia = tested on: MOLT-4 leukemia
NCI-H226 lung = tested on: NCI-H226 lung
NCI-H23 lung = tested on: NCI-H23 lung
NCI-H460 lung = tested on: NCI-H460 lung
NCI-H522 lung = tested on: NCI-H522 lung
NCI/ADR-RES ovarian = tested on: NCI/ADR-RES ovarian
OVCAR-3 ovarian = tested on: OVCAR-3 ovarian
OVCAR-4 ovarian = tested on: OVCAR-4 ovarian
OVCAR-5 ovarian = tested on: OVCAR-5 ovarian
OVCAR-8 ovarian = tested on: OVCAR-8 ovarian
PC-3 prostate = tested on: PC-3 prostate
RPMI-8226 leukemia = tested on: RPMI-8226 leukemia
RXF 393 renal = tested on: RXF 393 renal
SF-268 CNS = tested on: SF-268 CNS
SF-295 CNS = tested on: SF-295 CNS
SF-539 CNS = tested on: SF-539 CNS
SK-MEL-2 melanoma = tested on: SK-MEL-2 melanoma
SK-MEL-28 melanoma = tested on: SK-MEL-28 melanoma
SK-MEL-5 melanoma = tested on: SK-MEL-5 melanoma
SK-OV-3 ovarian = tested on: SK-OV-3 ovarian
SN12C renal = tested on: SN12C renal
SNB-19 CNS = tested on: SNB-19 CNS
SNB-75 CNS = tested on: SNB-75 CNS
SR leukemia = tested on: SR leukemia
SW-620 colon = tested on: SW-620 colon
T-47D breast = tested on: T-47D breast
TK-10 renal = tested on: TK-10 renal
U251 CNS = tested on: U251 CNS
UACC-257 melanoma = tested on: UACC-257 melanoma
UACC-62 melanoma = tested on: UACC-62 melanoma
UO-31 renal = tested on: UO-31 renal

## O=c1c2sc3ccccc3c2nnn1-c1ccc(F)c(Cl)c1
786-0 renal
  GI50: 3.62 µM
  TGI: 11.5 µM
A498 renal
  GI50: 5.82 µM
  TGI: 24.2 µM
A549 NSCLC
  GI50: 3.75 µM
  TGI: > 100 µM
ACHN renal
  GI50: 3.88 µM
  TGI: 27.2 µM
BT-549 breast
  GI50: 31.7 µM
  TGI: 95 µM
CAKI-1 renal
  GI50: 3.65 µM
  TGI: > 100 µM
CCRF-CEM leukemia
  GI50: 4.03 µM
  TGI: 16.9 µM
COLO 205 colon
  GI50: 3.93 µM
  TGI: > 100 µM
DU-145 prostate
  GI50: 15.6 µM
  TGI: > 100 µM
HCC-2998 colon
  GI50: 24.8 µM
  TGI: > 100 µM
HCT-116 colon
  GI50: 3.6 µM
  TGI: 20.9 µM
HCT-15 colon
  GI50: 20.3 µM
  TGI: > 100 µM
HL-60(TB) leukemia
  GI50: 56.6 µM
  TGI: > 100 µM
HOP-62 NSCLC
  GI50: 2170 nM
  TGI: 5.66 µM
HOP-92 NSCLC
  GI50: 1250 nM
  TGI: 4.89 µM
HS 578T breast
  GI50: 2680 nM
  TGI: 10.4 µM
HT29 colon
  GI50: > 100 µM
  TGI: > 100 µM
IGROV1 ovarian
  GI50: 3.66 µM
  TGI: 38 µM
K-562 leukemia
  GI50: 14.8 µM
  TGI: 39.4 µM
KM12 colon
  GI50: 17.4 µM
  TGI: > 100 µM
LOX IMVI melanoma
  GI50: 3.9 µM
  TGI: > 100 µM
M14 melanoma
  GI50: 30 µM
  TGI: > 100 µM
MALME-3M melanoma
  GI50: 8.17 µM
  TGI: 54.6 µM
MCF7 breast
  GI50: 20.4 µM
  TGI: > 100 µM
MDA-MB-231 breast
  GI50: 3.99 µM
  TGI: 26.1 µM
MDA-MB-435
  GI50: > 100 µM
  TGI: > 100 µM
MOLT-4 leukemia
  GI50: 14.9 µM
  TGI: 32.5 µM
NCI-H226 lung
  GI50: 8.87 µM
  TGI: > 100 µM
NCI-H23 lung
  GI50: 15.7 µM
  TGI: 62.8 µM
NCI-H460 lung
  GI50: 4.2 µM
  TGI: > 100 µM
NCI-H522 lung
  GI50: 20.2 µM
  TGI: > 100 µM
NCI/ADR-RES ovarian
  GI50: 17.1 µM
  TGI: > 100 µM
OVCAR-3 ovarian
  GI50: 21.2 µM
  TGI: > 100 µM
OVCAR-4 ovarian
  GI50: 3.39 µM
  TGI: > 100 µM
OVCAR-5 ovarian
  GI50: 20.8 µM
  TGI: > 100 µM
OVCAR-8 ovarian
  GI50: 5.16 µM
  TGI: > 100 µM
PC-3 prostate
  GI50: 7.76 µM
  TGI: > 100 µM
RPMI-8226 leukemia
  GI50: 13.4 µM
  TGI: 41.4 µM
RXF 393 renal
  GI50: 5.21 µM
  TGI: 22.4 µM
SF-268 CNS
  GI50: 15 µM
  TGI: 55 µM
SF-295 CNS
  GI50: 2560 nM
  TGI: 8.59 µM
SF-539 CNS
  GI50: 11.9 µM
  TGI: 27.7 µM
SK-MEL-2 melanoma
  GI50: 14.8 µM
  TGI: 35 µM
SK-MEL-28 melanoma
  GI50: > 100 µM
  TGI: > 100 µM
SK-MEL-5 melanoma
  GI50: 39.3 µM
  TGI: > 100 µM
SK-OV-3 ovarian
  GI50: 3.17 µM
  TGI: 9.92 µM
SN12C renal
  GI50: 15.1 µM
  TGI: > 100 µM
SNB-19 CNS
  GI50: 4.16 µM
  TGI: 34.4 µM
SNB-75 CNS
  GI50: 2010 nM
  TGI: 8.89 µM
SR leukemia
  GI50: 7.99 µM
  TGI: 22.7 µM
SW-620 colon
  GI50: > 100 µM
  TGI: > 100 µM
T-47D breast
  GI50: 8.12 µM
  TGI: > 100 µM
TK-10 renal
  GI50: 4.63 µM
  TGI: 13.8 µM
U251 CNS
  GI50: 4.76 µM
  TGI: 24.9 µM
UACC-257 melanoma
  GI50: 29.4 µM
  TGI: > 100 µM
UACC-62 melanoma
  GI50: 11.7 µM
  TGI: 38.8 µM
UO-31 renal
  GI50: 2130 nM
  TGI: > 100 µM
